Experimental data from patent publication US20240358672A1, “APPLICATION OF GENISTEIN AND ITS PHOSPHATE ESTER DERIVATIVE AND PHARMACEUTICAL COMPOSITION COMPRISING THE SAME” (National Taiwan University, priority 2023, published 2024).
Like-named read-outs stand apart in the source and are kept apart here.

Assays:
Apoe^−/− mice = experiment: Apoe−/− partial carotid artery ligation (PCAL) atherosclerosis model; type: in vivo, mouse; details: HFD 10 days
Excerpt: FIG. 10A to 10C illustrate the effects of Δ^9-THC and genistein on the treatment of atherosclerosis in vivo using the Apoe^−/− mouse model according to Example 10. FIG. 10A: Gross images of carotid arteries after oil red O staining are shown (left panel). The scale bar represents 1 mm. A diagram of partial ligation of the carotid artery is shown (right panel). […] The right subclavian artery (RSA), right common carotid artery (RCA), and left subclavian artery (LSA) were unligated and remained patent. FIG. 10B: Carotid artery sections were counterstained with hematoxylin and eosin (H&E), and a representative slide was presented with scale bars at 100 μm (left panel). Oil red O staining of atherosclerotic plaques in cross-section of mouse carotid artery with scale bar at 100 μm. The atherosclerotic plaques were quantified (right panel). FIG. 10C: Carotid artery sections were immunostained with an anti-F4/80 antibody. […] Quantification of F4/80-positive area within carotid artery sections (top right). Carotid artery sections were immunostained with an anti-CD68 antibody. […] Quantification of CD68-positive area within carotid artery sections is shown (bottom right).
Further, an Apoe^−/− mouse model was also employed to investigate the effects of Δ^9-THC and cotreatment with genistein on atherosclerosis. Partial carotid artery ligation (PCAL) was performed in Apoe^−/− mice at 10-16 weeks. […] All mice were fed a HFD for 10 days. At the end of the treatment protocol, the Apoe^−/− mice were euthanized and subjected to histological analysis. […] Macrophage recruitment was tested using the macrophage-specific F4/80 antibody and CD68 antibody. […] Consistent with the Ldlr^−/− model findings, the Apoe^−/− PCAL mouse model found increased plaque size and increased macrophage recruitment with Δ^9-THC, and genistein cotreatment ameliorated these indices of atherosclerosis in ligated carotid arteries.

mouse thoracic arteries = experiment: Wire myograph of isolated mouse thoracic aortas; type: in vivo, C57BL/6J mice
Description: (§1) FIG. 7A: Isometric tension recordings of isolated mice thoracic aortas were performed using a wire myograph. Vascular concentration-dependent relaxation was induced by acetylcholine (ACh) in pre-constricted mouse thoracic arteries. […] FIG. 7C: Luminex analysis of inflammatory cytokines in plasma of C57BL/6J mice treated with vehicle control, Δ^9-THC, or Δ^9-THC plus genistein. […] FIG. 7E: Effect of Δ^9-THC and genistein on NF-κB phosphorylation in mouse thoracic artery. Total cell lysates were prepared, and the expressions of phosphor-NF-κB were analyzed by ELISA (upper left). Superoxide dismutase (SOD) activity of serum from mouse (bottom left). The effect of Δ^9-THC and genistein on NF-κB phosphorylation in mouse thoracic artery tissues (n=5). Total cell lysates were prepared, and the expressions of NF-κB, phosphorylated NF-κB, and β-actin were analyzed by western blot analysis (right panel). FIG. 7F: The levels reduced glutathione (GSH), Oxidized glutathione (GSSG), Total glutathione (T-GSH) and GSH/GSSG in the serum samples of mice were detected. Plasma isolated from C57BL/6J mice (n=5) treated with vehicle control, Δ^9-THC, genistein, or their combination every day for 30 days was analyzed by the glutathione colorimetric assay kit (BioVision, K261).

C57BL/6J mice [1] = experiment: Echocardiographic analysis of mice
Description: FIG. 8A to 8C illustrate the effects of genistein and Δ^9-THC on cardiac contraction in vivo or in vitro experiments according to Example 9. […] After treatment exposure, the contractility, relaxation and peak force of EHT were measured using the Sony imaging platform. FIG. 8B: Same as the former, analysis of heart rate and contraction-relaxation (CR) interval (48 hours). […] Mice were anesthetized with 1%-2% isoflurane, and images were acquired in the parasternal long-axis (PLA) and parasternal short axis (PSA) on a Visualsonic Vevo 2100 platform. The ventricular (LV) dimensions were traced offline, and the ejection fraction (EF) was calculated using Simpson's biplane method of discs.
The inventor used engineered heart tissues (EHTs) composed of hiPSC-ECs and hiPSC-derived cardiomyocytes (hiPSC-CMs) to interrogate the effects of genistein and Δ^9-THC on contractility in vitro.

hiPSC-ECs [2] = experiment: Western blot / immunofluorescence of p38 and NF-κB (p65) in hiPSC-ECs; details: 48 hours
hiPSC-ECs [3] = experiment: qPCR gene expression in hiPSC-ECs; type: cell-based, human; details: 48 hours
C57BL/6J mice [4] = type: in vivo
Description: as §1
Genistein also rescued the oxidative stress protective-related gene expression (FIG. 7D). In addition, NF-κB phosphorylation and SOD expression in mouse serum were also attenuated with genistein (FIG. 7E). Δ^9-THC administration decreased circulating levels of the antioxidant glutathione, which was ameliorated with genistein cotreatment (FIG. 7F).

C57BL/6J mice [5] = experiment: Neurobehavioral tetrad (Billy Martin tetrad) in mice
Description: FIG. 13 illustrate the effect of genistein on the neurobehavioral effects of Δ^9-THC according to Example 12. C57BL/6J mice were exposed to (1) vehicle control (intraperitoneal [i.p.], and oral [p.o.], n=8), (2) Δ^9-THC at 20 mg/kg i.p. and p.o. vehicle (n=9), (3) genistein at 50 mg/kg p.o. and i.p. vehicle (n=8), and (4) combination of Δ^9-THC at 20 mg/kg i.p. and genistein at 50 mg/kg p.o. (n=9). […] Hypothermia was assessed by measuring body temperature using a rectal probe before and 60 min after treatment. The catalepsy test measures the time a mouse remained immobile on the bar. Analgesia was measured by placing mice on a hot plate and recording the time for the mouse to withdraw or lick.
These are described as the Billy Martin tetrad.
Therefore, the neurological effects of Δ^9-THC and genistein co-administration were tested in C57BL/6J mice treated with vehicle, genistein, Δ^9-THC, or in combination. The tetrad effects were assessed using an activity chamber for mobility, a hot plate for analgesia, a rectal probe for hypothermia, and the bar test for […].

[6] = Δ^9-THC 1 mg/kg plus genistein 50 mg/kg
[7] = single agent: Δ^9-THC 1 mg/kg i.p. or genistein 50 mg/kg p.o.
[8] = 10 μM genistein with 5 μM Δ^9-THC

O=c1c(-c2ccc(O)cc2)coc2cc(O)cc(O)c12 [genistein]
CD68-positive area in ligated carotid artery (Apoe^−/− mice; [6]): reduced
F4/80-positive area in ligated carotid artery (Apoe^−/− mice; [6]): decreased
plaque size in ligated carotid artery (oil red O) (Apoe^−/− mice; [6]): ameliorated the plaque size
Δ^9-THC-induced endothelial dysfunction (mouse thoracic arteries; [6]): mitigated the effect
cardiac structure or function (EF, HR, LVEDV, LVEDM) (C57BL/6J mice [1]; cotreatment Δ^9-THC 1 mg/kg i.p. and genistein 50 mg/kg p.o.): did not affect cardiac structure or function
cardiac structure or function (EF, HR, LVEDV, LVEDM) (C57BL/6J mice [1]; [7]): did not affect cardiac structure or function
Δ^9-THC-induced NF-κB phosphorylation (hiPSC-ECs [2]; [8]): attenuated NF-κB phosphorylation
Δ^9-THC-induced p38 phosphorylation (hiPSC-ECs [2]; [8]): decreased
NOS2 and NOX1 expression (hiPSC-ECs [3]; [8]): salutatory effect
Δ^9-THC-induced TLR4 expression (hiPSC-ECs [3]; [8]): disrupted its expression
Δ^9-THC-induced mRNA expressions of inflammation-related genes in mouse thoracic artery tissues (C57BL/6J mice [4]; Δ^9-THC 1 mg/kg plus genistein 50 mg/kg or rimonabant 3 mg/kg): ameliorated
NF-κB phosphorylation in mouse thoracic artery (C57BL/6J mice [4]; Δ^9-THC plus genistein): attenuated
SOD expression in mouse serum (C57BL/6J mice [4]; Δ^9-THC plus genistein): attenuated
oxidative stress protective-related gene expression in thoracic artery tissues (C57BL/6J mice [4]; Δ^9-THC plus genistein): rescued
plasma IL-6, IL-3 and IL-10 (Luminex) (C57BL/6J mice [4]; Δ^9-THC plus genistein cotreatment): significantly reduced
Δ^9-THC-decreased circulating glutathione (C57BL/6J mice [4]; Δ^9-THC plus genistein cotreatment, every day for 30 days): ameliorated
tetrad effects (C57BL/6J mice [5]; genistein 50 mg/kg p.o. alone): did not affect tetrad effects
Δ^9-THC neurobehavioral effects (C57BL/6J mice [5]; Δ^9-THC 20 mg/kg i.p. and genistein 50 mg/kg p.o.): could not attenuate

CCCCCc1cc(O)c2c(c1)OC(C)(C)[C@@H]1CCC(C)=C[C@@H]21 [Δ^9-THC, Δ^9-tetrahydrocannabinol]
CD68-positive area in ligated carotid artery (Apoe^−/− mice; Δ^9-THC 1 mg/kg): significantly increased
F4/80-positive area in ligated carotid artery (Apoe^−/− mice; Δ^9-THC 1 mg/kg): significantly increased
plaque area in ligated carotid artery (oil red O) (Apoe^−/− mice; Δ^9-THC 1 mg/kg): increased
endothelial function (ACh-induced relaxation) (mouse thoracic arteries; Δ^9-THC 1 mg/kg): induced endothelial dysfunction
cardiac structure or function (EF, HR, LVEDV, LVEDM) (C57BL/6J mice [1]; [7]): did not affect cardiac structure or function
p65 (NF-κB) phosphorylation (hiPSC-ECs [2]; 5 μM Δ^9-THC alone): caused p65 phosphorylation
phosphorylation of p38 (hiPSC-ECs [2]; 5 μM Δ^9-THC alone): increased phosphorylation of p38
nuclear translocation of NF-κB (p65) (hiPSC-ECs [2]; 5 μM Δ^9-THC): induced
TLR4 expression (hiPSC-ECs [3]; 5 μM Δ^9-THC alone): induced TLR4 expression
expression of ROS-related genes NOX1 and NOS2 (hiPSC-ECs [3]; 5 μM Δ^9-THC alone): upregulated
mRNA expression of antioxidant-related genes (SOD1, SOD2, CAT, GPX1) (hiPSC-ECs [3]; 5 μM Δ^9-THC alone): decreased mRNA expression
expression of I kappa B (NFKBIA) (hiPSC-ECs [3]; Δ^9-THC alone): inhibited
expression of proinflammatory cytokines and chemokines (hiPSC-ECs [3]; Δ^9-THC alone): increased
plasma IL-6, IL-3 and IL-10 (Luminex) (C57BL/6J mice [4]; Δ^9-THC alone): elevated
circulating levels of the antioxidant glutathione (C57BL/6J mice [4]; Δ^9-THC alone, every day for 30 days): decreased
analgesia (hot plate) (C57BL/6J mice [5]; Δ^9-THC 20 mg/kg i.p.): analgesia
hypothermia (rectal probe) (C57BL/6J mice [5]; Δ^9-THC 20 mg/kg i.p.): hypothermia
mobility (activity chamber) (C57BL/6J mice [5]; Δ^9-THC 20 mg/kg i.p.): decreased mobility
sedation (bar test) (C57BL/6J mice [5]; Δ^9-THC 20 mg/kg i.p.): sedation
